The values below come from patent publication US11384078B2, “5,6-fused-bicyclic compounds and compositions for the treatment of parasitic diseases” (NOVARTIS AG, priority 2017, dated 2022).

What all share (format): cell-based
The test system of assay [1] is Leishmania donovani axenic amastigote. Kind of assay: In vitro assay for growth inhibition of Leishmania donovani axenic amastigote (Cell TiterGlo luminescence). Particulars: Leishmania donovani, L. donovani axenic amastigotes in vitro; read-out: L. donovani amastigotes EC50. In outline: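 Axenic L. donovani amastigotes (9600/well) grown at 37 °C, 5% CO2 in supplemented RPMI 1640, pH 5.5, with compound added from DMSO. After two days, viability read by CellTiter-Glo luminescence against DMSO and control-compound wells.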
In general terms: Cellular ATP, detected with luciferase, serves as a proxy for viable cell number.

For assay [2], the system named is Trypanosoma brucei brucei (Lister 427) strain. The assay is described as follows: Assay for growth inhibition against Trypanosoma brucei brucei (Cell TiterGlo ATP luminescence). Particulars: Trypanosoma brucei, T. brucei brucei (Lister 427); read-out: T. Brucei (HAT) EC50. The procedure: Assay for Growth Inhibition Against Trypanosoma brucei brucei
The proliferation is quantified by the addition of Cell TiterGlo® (Promega®) a luminescent cell viability assay that measures the number of viable cells in culture based on the quantification of cellular ATP amount, which is an indicator of metabolically active cells.
Trypanosoma brucei brucei (Lister 427) strain was grown in Hirumi 9 (HMI-9) media supplemented with 10% v/v fetal bovine serum (FBS) and 10% v/v serum plus. For measurement of cell proliferation inhibition, test compounds were three fold serially diluted in duplicates to 384-well white plates, resulting in 10 dilutions for each compound. A volume of 40 μL of T. b. brucei culture (10,000 parasites/mL) was added to each well, and the assay plates were incubated at 37° C. for 2 days in a CO2 incubator. Growth inhibition was monitored by measuring ATP levels, which, is used as a surrogate marker for growth. Relative luminescence units were measured using TECAN® M1000 after 30 min of adding 40 μl of Cell TiterGlo®. IC50 values were determined by analyzing the data using HELIOS software. IC50 is defined as the lowest concentration of the compound that inhibited 50% growth of the T. b. brucei wild type strain compared to untreated controls.

Assay [3] relates to Trypanosoma cruzi amastigotes cultured in 3T3 fibroblast cells. The assay is described as follows: Assay for growth inhibition of kinetoplastid parasite Trypanosoma cruzi (beta-galactosidase Tulahuen strain, CPRG readout). Particulars: Trypanosoma cruzi, Fibroblast, T. cruzi amastigotes in 3T3 fibroblast cells; read-out: Buckner infectious T. cruzi EC50. The essentials: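 3T3 fibroblasts (1,000 cells/well) plated overnight, treated with compound in DMSO, then infected with 10,000 Lac-Z-expressing Tulahuen trypomastigotes. After 6 days, 0.6 mM CPRG with 0.6% NP-40 added for 2 h at room temperature; absorbance gives relative intracellular amastigote numbers. Benznidazole and nifurtimox serve as positive controls.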

Take `Cc1cc(C(=O)Nc2ccc(F)c(-n3cc4cc(C(C)C)cnc4n3)c2)oc1C` [Compound 114, N-{4-fluoro-3-[5-(propan-2-yl)-2H-pyrazolo[3,4-b]pyridin-2-yl]phenyl}-4,5-dimethylfuran-2-carboxamide]: the results for the EC50 in assay [1], in assay [2] and in assay [3] were 310 nM, 54 nM and 45 nM, respectively.
In the same order, the values of `Cc1cccnc1-c1cnc2nn(-c3cc(NC(=O)N4CC(F)(F)C4)ccc3F)cc2c1` [Compound 5, 3,3-difluoro-N-(4-fluoro-3-(5-(3-methylpyridin-2-yl)-2H-pyrazolo[3,4-b]pyridin-2-yl)phenyl)azetidine-1-carboxamide] are 3.6 nM, under 23 nM and 5.3 nM.
In the same order, the values of `CC(C)c1cnc2nn(-c3cc(NC(=O)c4cc5ccccc5o4)ccc3F)cc2c1` [Compound 116, N-{4-fluoro-3-[5-(propan-2-yl)-2H-pyrazolo[3,4-b]pyridin-2-yl]phenyl}-1-benzofuran-2-carboxamide] are 3100 nM, 1500 nM and 880 nM.
In the same order, the values of `CC(C)c1cnc2nn(-c3cc(NC(=O)N4CC5(CCC5)C4)ccc3F)cc2c1` [Compound 226, N-{4-fluoro-3-[5-(propan-2-yl)-2H-pyrazolo[3,4-b]pyridin-2-yl]phenyl}-2-azaspiro[3.3]heptane-2-carboxamide] are 134 nM, 343 nM and 129 nM.
In the case of `O=C(Nc1ccc(F)c(-n2cc3cc(N4CCn5ccnc5C4)cnc3n2)c1)N1CC(F)C1` [Compound 180, 3-fluoro-N-[4-fluoro-3-(5-{5H,6H,7H,8H-imidazo[1,2-a]pyrazin-7-yl}-2H-pyrazolo[3,4-b]pyridin-2-yl)phenyl}azetidine-1-carboxamide], the EC50 (usually the concentration giving half of the maximal effect) is 550 nM in assay [1], 38 nM in assay [2] and 3900 nM in assay [3].
In the same order, the values of `CC(C)c1cnc2nn(-c3cc(NC(=O)N4CC[C@@H](C)C4)ccc3F)cc2c1` [Compound 221, (3R)-N-{4-fluoro-3-[5-(propan-2-yl)-2H-pyrazolo[3,4-b]pyridin-2-yl]phenyl}-3-methylpyrrolidine-1-carboxamide] are 3 nM, 9 nM and 1 nM.
In the same order, the values of `C[C@H]1CN(c2cnc3nn(-c4cc(NC(=O)N5CC(F)C5)ccc4F)cc3c2)C[C@H](C)O1` [Compound 177, N-(3-{5-[(2S,6S)-2,6-dimethylmorpholin-4-yl]-2H-pyrazolo[3,4-b]pyridin-2-yl]-4-fluorophenyl)-3-fluoroazetidine-1-carboxamide] are 27 nM, under 23 nM and 55 nM.
In the same order, the values of `Cc1cccnc1-c1cnc2nn(-c3cc(NC(=O)N4CC[C@@H](F)C4)ccc3F)cc2c1` [Compound 4, (R)-3-fluoro-N-(4-fluoro-3-(5-(3-methylpyridin-2-yl)-2H-pyrazolo[3,4-b]pyridin-2-yl)phenyl)pyrrolidine-1-carboxamide] are 1.3 nM, under 23 nM and 1 nM.
With `O=C(Nc1ccc(F)c(-n2cc3cc(-c4ccccn4)cnc3n2)c1)c1ccc(F)o1` [Compound 11, 5-fluoro-N-(4-fluoro-3-(5-(pyridin-2-yl)-2H-pyrazolo[3,4-b]pyridin-2-yl)phenyl)furan-2-carboxamide], the EC50 in assay [1] was 2.8 nM; in assay [2], over 50000 nM; in assay [3], 1 nM.
In the same order, the values of `CC(C)c1cnc2nn(-c3cc(NC(=O)N(C)C)ccc3F)cc2c1` [Compound 228, 1-{4-fluoro-3-[5-(propan-2-yl)-2H-pyrazolo[3,4-b]pyridin-2-yl]phenyl}-3,3-dimethylurea] are 31 nM, 30 nM and 10 nM.
In the same order, the values of `O=C(Nc1ccc(F)c(-n2cc3cc(N4CCC5(COC5)C4)cnc3n2)c1)N1CC(F)C1` [Compound 183, 3-fluoro-N-[4-fluoro-3-(5-{2-oxa-6-azaspiro[3.4]octan-6-yl}-2H-pyrazolo[3,4-b]pyridin-2-yl)phenyl}azetidine-1-carboxamide] are 12 nM, under 23 nM and 55 nM.
In the same order, the values of `CC(C)c1cnc2nn(-c3cc(NC(=O)N4C[C@H]5C[C@H]5C4)ccc3F)cc2c1` [Compound 223, (1R,5S)-N-{4-fluoro-3-[5-(propan-2-yl)-2H-pyrazolo[3,4-b]pyridin-2-yl]phenyl}-3-azabicyclo[3.1.0]hexane-3-carboxamide] are 82 nM, 64 nM and 37 nM.
Turning to `O=C(Nc1ccc(F)c(-n2cc3cc(C4CCC4)cnc3n2)c1)N1CC(F)(F)C1` [Compound 31, N-(3-{5-cyclobutyl-2H-pyrazolo[3,4-b]pyridin-2-yl}-4-fluorophenyl)-3,3-difluoroazetidine-1-carboxamide], the EC50 in assay [1] was 6.2 nM; in assay [2], under 23 nM; in assay [3], 8.3 nM.
In the same order, the values of `CC(C)c1cnc2nn(-c3cc(NC(=O)c4ccc(CN(C)C)o4)ccc3F)cc2c1` [Compound 111, 5-[(dimethylamino)methyl]-N-{4-fluoro-3-[5-(propan-2-yl)-2H-pyrazolo[3,4-b]pyridin-2-yl]phenyl}furan-2-carboxamide] are 8700 nM, 10000 nM and 2900 nM.
In the same order, the values of `Cc1cccnc1-c1cnc2nn(-c3cc(NC(=O)N4CC(F)C4)ccc3F)cc2c1` [Compound 6, 3-fluoro-N-(4-fluoro-3-(5-(3-methylpyridin-2-yl)-2H-pyrazolo[3,4-b]pyridin-2-yl)phenyl)azetidine-1-carboxamide] are 12 nM, under 23 nM and 9.9 nM.
Regarding `O=C(Nc1ccc(F)c(-n2cc3cc(N4CCN(CC(F)(F)F)CC4)cnc3n2)c1)N1CC[C@@H](F)C1` [Compound 253, (3R)-3-fluoro-N-(4-fluoro-3-{5-[4-(2,2,2-trifluoroethyl)piperazin-1-yl]-2H-pyrazolo[3,4-b]pyridin-2-yl}phenyl)pyrrolidine-1-carboxamide], the EC50 was found to be 3 nM in assay [1], 5 nM in assay [2] and 4 nM in assay [3].
As for `O=C(Nc1ccc(F)c(-n2cc3cc(N4CCS(=O)(=O)CC4)cnc3n2)c1)N1CC(F)C1` [Compound 178, N-{3-[5-(1,1-dioxo-1$|^6,4-thiomorpholin-4-yl)-2H-pyrazolo[3,4-b]pyridin-2-yl]-4-fluorophenyl}-3-fluoroazetidine-1-carboxamide], the concentration for a half-maximal effect (EC50) amounted to 160 nM in assay [1], 36 nM in assay [2] and 1600 nM in assay [3].
In the same order, the values of `CC(C)c1cnc2nn(-c3cc(NC(=O)N4CCC5(CC5)C4)ccc3F)cc2c1` [Compound 220, N-{4-fluoro-3-[5-(propan-2-yl)-2H-pyrazolo[3,4-b]pyridin-2-yl]phenyl}-5-azaspiro[2.4]heptane-5-carboxamide] are 15 nM, 42 nM and 6 nM.
In the same order, the values of `CC(C)c1cnc2nn(-c3cc(NC(=O)N4CCN5CCC4CC5)ccc3F)cc2c1` [Compound 229, N-{4-fluoro-3-[5-(propan-2-yl)-2H-pyrazolo[3,4-b]pyridin-2-yl]phenyl}-1,4-diazabicyclo[3.2.2]nonane-4-carboxamide] are 25000 nM, 12500 nM and 15600 nM.
In the same order, the values of `CO[C@@H]1CCN(C(=O)Nc2ccc(F)c(-n3cc4cc(C(C)C)cnc4n3)c2)C1` [Compound 225, (3R)-N-{4-fluoro-3-[5-(propan-2-yl)-2H-pyrazolo[3,4-b]pyridin-2-yl]phenyl}-3-methoxypyrrolidine-1-carboxamide] are 37 nM, 238 nM and 50 nM.
As to `CC(C)c1cnc2nn(-c3cc(NC(=O)N(C)CC(F)(F)F)ccc3F)cc2c1` [Compound 227, 1-{4-fluoro-3-[5-(propan-2-yl)-2H-pyrazolo[3,4-b]pyridin-2-yl]phenyl}-3-methyl-3-(2,2,2-trifluoroethyl)urea], the EC50 stood at 30 nM in assay [1], 59 nM in assay [2] and 11 nM in assay [3].
In the same order, the values of `CC(C)c1cnc2nn(-c3cc(NC(=O)C4(C)CCCO4)ccc3F)cc2c1` (stereo not drawn) [Compound 77, N-{4-fluoro-3-[5-(propan-2-yl)-2H-pyrazolo[3,4-b]pyridin-2-yl]phenyl}-2-methyloxolane-2-carboxamide] are 17000 nM, 8500 nM and 6500 nM.
